Measured values reported in US6737383B1, “Herbicidal oxadiazolidines” (priority 1999, dated 2004).

Tests used:
[1] = test system: duck salad; assay: Test B flood test duck salad; type: in vivo, Heteranthera limosa
Description: (§1) At the same time, these crop and weed species were also treated with postemergence applications of test chemicals formulated in the same manner. Plants ranged in height from 2 to 18 cm (1- to 4-leaf stage) for postemergence treatments. Plant species in the flood test consisted of rice (Oryza sativa), smallflower flatsedge (Cyperus difformis), duck salad (Heteranthera limosa) and bamyardgrass (Echinochloa crus-galli) grown to the 2-leaf stage for testing. Treated plants and controls were maintained in a greenhouse for twelve to sixteen days, after which all species were compared to controls and visually evaluated. Plant response ratings, summarized in Table B, are based on a scale of 0 to 10 where 0 is no effect and 10 is complete control. A dash (−) response means no test result.

[2] = test system: velvetleaf; assay: Test B pre/postemergence velvetleaf; type: in vivo, Abutilon theophrasti
Outline: (§2)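 Response is a visual 0-to-10 score relative to untreated plants, where 0 means no effect and 10 means complete control, taken twelve to sixteen days after application. Treatments went onto soil at planting and onto foliage of 1- to 4-leaf plants, using a surfactant-containing non-phytotoxic solvent.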

[3] = test system: bamyardgrass; assay: Test B flood test barnyardgrass; type: in vivo, Echinochloa crus-galli
Description: as §1

[4] = test system: morningglory; assay: Test B pre/postemergence morningglory; type: in vivo, Ipomoea hederacea
Outline: as §2

[5] = test system: sugar beet; assay: Test B pre/postemergence sugar beet; type: in vivo, Beta vulgaris
Outline: as §2

[6] = test system: bedstraw; assay: Test B pre/postemergence bedstraw; type: in vivo, Galium aparine
Outline: as §2

[7] = test system: pigweed; assay: Test B pre/postemergence pigweed; type: in vivo, Amaranthus retroflexus
Outline: as §2

[8] = test system: blackgrass; assay: Test B pre/postemergence blackgrass; type: in vivo, Alopecurus myosuroides
Outline: as §2

[9] = test system: surinam grass; assay: Test B pre/postemergence surinam grass; type: in vivo, Brachiaria decumbens
Outline: as §2

[10] = test system: rape; assay: Test B pre/postemergence rape; type: in vivo, Brassica napus
Outline: as §2

[11] = test system: cocklebur; assay: Test B pre/postemergence cocklebur; type: in vivo, Xanthium strumarium
Outline: as §2

[12] = test system: corn; assay: Test B pre/postemergence corn; type: in vivo, Zea mays
Outline: as §2

[13] = test system: giant foxtail; assay: Test B pre/postemergence giant foxtail; type: in vivo, Setaria faberii
Outline: as §2

[14] = test system: smallflower flatsedge; assay: Test B flood test smallflower flatsedge; type: in vivo, Cyperus difformis
Description: as §1

[15] = test system: wheat; assay: Test B pre/postemergence wheat; type: in vivo, Triticum aestivum
Outline: as §2

[16] = test system: soybean; assay: Test B pre/postemergence soybean; type: in vivo, Glycine max
Outline: as §2

[17] = test system: crabgrass; assay: Test B pre/postemergence crabgrass; type: in vivo, Digitaria sanguinalis
Outline: as §2

[18] = test system: wild oat; assay: Test B pre/postemergence wild oat; type: in vivo, Avena fatua
Outline: as §2

[19] = test system: purple nutsedge; assay: Test B pre/postemergence purple nutsedge; type: in vivo, Cyperus rotundus
Outline: as §2

[20] = Rate 62 g/ha, flood test species, Pre-emergence, visual evaluation after twelve to sixteen days
[21] = Rate 125 g/ha, under heading Pre-emergence, flood test species, visual evaluation after twelve to sixteen days
[22] = Rate 250 g/ha, Pre-emergence (flood test species), scale 0 to 10, 0 is no effect, 10 is complete control
[23] = Rate 500 g/ha, Pre-emergence section of Table B, 0 to 10 scale (0 no effect, 10 complete control)
[24] = Postemergence, Rate 62 g/ha, scale of 0 to 10, 0 is no effect, 10 is complete control
[25] = Postemergence, Rate 125 g/ha, scale 0 to 10, 0 is no effect, 10 is complete control
[26] = Postemergence, Rate 500 g/ha, scale 0 to 10, 0 is no effect, 10 is complete control
[27] = Preemergence, Rate 62 g/ha, scale of 0 to 10 where 0 is no effect and 10 is complete control
[28] = Preemergence, Rate 125 g/ha, scale 0 to 10, 0 is no effect, 10 is complete control
[29] = Preemergence, Rate 500 g/ha, scale of 0 to 10 where 0 is no effect and 10 is complete control
[30] = Rate 250 g/ha, Postemergence, scale of 0 to 10 where 0 is no effect and 10 is complete control

## CCCCCn1c(=O)on(C(=O)N(c2ccc(Cl)cc2)C(C)C)c1=O [Compound 528]
[1]; [20]
  Plant response rating, Ducksalad (0 to 10 scale, 0 is no effect, 10 is complete control): 0
[1]; [21]
  Ducksalad plant response rating (0 to 10 scale, 0 is no effect, 10 is complete control): 0
[1]; [22]
  Ducksalad plant response rating: 0
[1]; [23]
  Ducksalad plant response rating: 0
[2]; [24]
  Velvetleaf plant response rating: 0
[2]; [25]
  Velvetleaf plant response rating: 4
[2]; [26]
  Plant response rating, Velvetleaf: 5
[2]; [27]
  Plant response rating, Velvetleaf: 0
[2]; [28]
  Velvetleaf plant response rating: 0
[2]; Preemergence, Rate 250 g/ha
  Velvetleaf plant response rating (0 to 10 scale): 0
[2]; [29]
  Velvetleaf plant response rating: 0
[2]; [30]
  Plant response rating, Velvetleaf: 4
[3]; [20]
  Plant response rating, Barnyardgrass (0 to 10 scale, 0 is no effect, 10 is complete control): 0
[3]; [21]
  Barnyardgrass plant response rating (0 to 10 scale, 0 is no effect, 10 is complete control): 0
[3]; [22]
  Barnyardgrass plant response rating: 0
[3]; [23]
  Barnyardgrass plant response rating: 0
[4]; [24]
  Morningglory plant response rating: 2
[4]; [25]
  Morningglory plant response rating: 3
[4]; [26]
  Plant response rating, Morningglory: 5
[4]; [27]
  Plant response rating, Morningglory: 0
[4]; [28]
  Morningglory plant response rating: 0
[4]; Preemergence, Rate 250 g/ha
  Morningglory plant response rating (0 to 10 scale): 0
[4]; [29]
  Morningglory plant response rating: 3
[4]; [30]
  Plant response rating, Morningglory: 5
[5]; [24]
  Sugarbeets plant response rating: 0
[5]; [25]
  Sugarbeets plant response rating: 0
[5]; [26]
  Plant response rating, Sugarbeets: 2
[5]; [27]
  Plant response rating, Sugarbeets: 0
[5]; [28]
  Sugarbeets plant response rating: 0
[5]; Preemergence, Rate 250 g/ha
  Sugarbeets plant response rating (0 to 10 scale): 0
[5]; [30]
  Plant response rating, Sugarbeets: 0
[6]; [24]
  Bedstraw plant response rating: 0
[6]; [25]
  Bedstraw plant response rating: 0
[6]; [26]
  Plant response rating, Bedstraw: 8
[6]; [27]
  Plant response rating, Bedstraw: 0
[6]; [28]
  Bedstraw plant response rating: 0
[6]; Preemergence, Rate 250 g/ha
  Bedstraw plant response rating (0 to 10 scale): 0
[6]; [30]
  Plant response rating, Bedstraw: 0
[7]; [24]
  Redroot pigweed plant response rating: 0
[7]; [25]
  Redroot pigweed plant response rating: 0
[7]; [26]
  Plant response rating, Redroot pigweed: 0
[7]; [27]
  Plant response rating, Redroot pigweed: 0
[7]; [28]
  Redroot pigweed plant response rating: 0
[7]; Preemergence, Rate 250 g/ha
  Redroot pigweed plant response rating (0 to 10 scale): 0
[7]; [30]
  Plant response rating, Redroot pigweed: 0
[8]; [24]
  Blackgrass plant response rating: 0
[8]; [25]
  Blackgrass plant response rating: 0
[8]; [26]
  Plant response rating, Blackgrass: 5
[8]; [27]
  Plant response rating, Blackgrass: 0
[8]; [28]
  Blackgrass plant response rating: 0
[8]; Preemergence, Rate 250 g/ha
  Blackgrass plant response rating (0 to 10 scale): 0
[8]; [30]
  Plant response rating, Blackgrass: 0
[9]; [24]
  B. signalgrass plant response rating: 0
[9]; [25]
  B. signalgrass plant response rating: 0
[9]; [26]
  Plant response rating, B. signalgrass: 0
[9]; [27]
  Plant response rating, B. signalgrass: 0
[9]; [28]
  B. signalgrass plant response rating: 0
[9]; Preemergence, Rate 250 g/ha
  B. signalgrass plant response rating (0 to 10 scale, 0 is no effect, 10 is complete control): 0
[9]; [30]
  Plant response rating, B. signalgrass: 0
[10]; [24]
  Rape plant response rating: 0
[10]; [25]
  Rape plant response rating: 0
[10]; [26]
  Plant response rating, Rape: 3
[10]; [27]
  Plant response rating, Rape: 0
[10]; [28]
  Rape plant response rating: 0
[10]; Preemergence, Rate 250 g/ha
  Rape plant response rating (0 to 10 scale): 0
[10]; [30]
  Plant response rating, Rape: 3
[11]; [24]
  Cocklebur plant response rating: 0
[11]; [25]
  Cocklebur plant response rating: 0
[11]; [26]
  Plant response rating, Cocklebur: 3
[11]; [27]
  Plant response rating, Cocklebur: 0
[11]; [28]
  Cocklebur plant response rating: 0
[11]; Preemergence, Rate 250 g/ha
  Cocklebur plant response rating (0 to 10 scale): 0
[11]; [29]
  Cocklebur plant response rating: 0
[11]; [30]
  Plant response rating, Cocklebur: 2
[12]; [24]
  Corn plant response rating: 0
[12]; [25]
  Corn plant response rating: 0
[12]; [26]
  Plant response rating, Corn: 0
[12]; [27]
  Plant response rating, Corn: 0
[12]; [28]
  Corn plant response rating: 0
[12]; Preemergence, Rate 250 g/ha
  Corn plant response rating (0 to 10 scale): 0
[12]; [29]
  Corn plant response rating: 0
[12]; [30]
  Plant response rating, Corn: 0
[13]; [24]
  Giant foxtail plant response rating: 0
[13]; [25]
  Giant foxtail plant response rating: 3
[13]; [26]
  Plant response rating, Giant foxtail: 9
[13]; [27]
  Plant response rating, Giant foxtail: 9
[13]; [28]
  Giant foxtail plant response rating: 10
[13]; Preemergence, Rate 250 g/ha
  Giant foxtail plant response rating (0 to 10 scale): 10
[13]; [29]
  Giant foxtail plant response rating: 10
[13]; [30]
  Plant response rating, Giant foxtail: 3
[14]; [20]
  Plant response rating, S. Flatsedge (0 to 10 scale, 0 is no effect, 10 is complete control): 0
[14]; [21]
  S. Flatsedge plant response rating (0 to 10 scale, 0 is no effect, 10 is complete control): 0
[14]; [22]
  S. Flatsedge plant response rating: 0
[14]; [23]
  S. Flatsedge plant response rating: 0
[15]; [24]
  Wheat plant response rating: 0
[15]; [25]
  Wheat plant response rating: 0
[15]; [26]
  Plant response rating, Wheat: 0
[15]; [27]
  Plant response rating, Wheat: 0
[15]; [28]
  Wheat plant response rating: 0
[15]; Preemergence, Rate 250 g/ha
  Wheat plant response rating (0 to 10 scale): 0
[15]; [30]
  Plant response rating, Wheat: 0
[16]; [24]
  Soybean plant response rating: 3
[16]; [25]
  Soybean plant response rating: 3
[16]; [26]
  Plant response rating, Soybean: 5
[16]; [27]
  Plant response rating, Soybean: 0
[16]; [28]
  Soybean plant response rating: 0
[16]; Preemergence, Rate 250 g/ha
  Soybean plant response rating (0 to 10 scale): 0
[16]; [29]
  Soybean plant response rating: 0
[16]; [30]
  Plant response rating, Soybean: 5
[17]; [24]
  Crabgrass plant response rating: 3
[17]; [25]
  Crabgrass plant response rating: 9
[17]; [26]
  Plant response rating, Crabgrass: 10
[17]; [27]
  Plant response rating, Crabgrass: 7
[17]; [28]
  Crabgrass plant response rating: 9
[17]; Preemergence, Rate 250 g/ha
  Crabgrass plant response rating (0 to 10 scale): 10
[17]; [29]
  Crabgrass plant response rating: 10
[17]; [30]
  Plant response rating, Crabgrass: 9
[18]; [24]
  Wild oats plant response rating: 0
[18]; [25]
  Wild oats plant response rating: 0
[18]; [26]
  Plant response rating, Wild oats: 0
[18]; [27]
  Plant response rating, Wild oats: 0
[18]; [28]
  Wild oats plant response rating: 0
[18]; Preemergence, Rate 250 g/ha
  Wild oats plant response rating (0 to 10 scale): 0
[18]; [30]
  Plant response rating, Wild oats: 0
[19]; [25]
  Nutsedge plant response rating: 0
[19]; [26]
  Plant response rating, Nutsedge: 6
[19]; [27]
  Plant response rating, Nutsedge: 0
[19]; [28]
  Nutsedge plant response rating: 0
[19]; Preemergence, Rate 250 g/ha
  Nutsedge plant response rating (0 to 10 scale): 0
[19]; [29]
  Nutsedge plant response rating: 0
[19]; [30]
  Plant response rating, Nutsedge: 0
